According to patent US12171754B2, “Combinational uses of nitroxoline and its analogues with chemotherapies and immunotherapies in the treatment of cancers” (Jiangsu Yahong Meditech Co., Ltd., priority 2016, dated 2024):
Where “and” joins values, the source holds several entries; their conditions need not be identical. Equal values may be shown once. Read-outs that look alike come from different tables or passages of the source.

What was measured:
[1] = system: human liver cancer cell line HepG2; experiment: MTT assay, inhibition of cell growth (single drugs and combinations with NIT; CI by Chou's method); assay type: cell-based
Protocol: (§1) The combinational studies of NIT and chemotherapies were conducted by mixing NIT with individual chemotherapies at five to seven concentration levels, with the medium concentration levels close to their IC50 values. The combinational indices (CIs) were calculated and plotted according to Ting-Chao Chou's method (19) to estimate the combinational effects, including synergism, addition and antagonism.
(§2) Compounds: NIT, carboplatin, paclitaxel, epirubicin and pirarubicin were purchased from suppliers, and were dissolved in the DMSO to stock solution and store in −20° C. Before use, the stock solutions were diluted to different concentrations of working solutions. The DMSO concentration in working solutions was less than 1%. All cancer cell lines were purchased from vendors.
(§3) An MTT assay was used as the test method. An appropriate amount of cells (2×10^3/100 μL) was seeded into 96-well plate and incubated at 37° C. in a CO2 incubator overnight for cell adhesion and adaptation. Cancer cells were also seeded in a separate 96-well plate (plate T0), 12 wells/cell line, to measure the OD value at time zero (T0). After overnight adaptation, 20 μL MTT reagent were added per well (final concentration 0.5 mg/mL) to plate T0 and incubated at 37° C. for 4 hours. The supernatant medium was pipetted out, and about 150 μL DMSO were added per well. The plate was read on a plate reader using 550 nm as the test wavelength and 630 nm as the reference wavelength to obtain the OD value at time zero (T0). After overnight adaptation, the test compounds and vehicle were added into the plate to treat the cells. The test compounds were tested at 6 concentrations in triplicate wells. The plate was incubated at 37° C. in a CO2 incubator for 48 h. A longer incubation time can be used. 20 μL MTT reagent were added per well and incubated at 37° C. for 4 h. the supernatant medium was pipetted out, and about 150 μL DMSO were added per well. The plate was read on a plate reader (TECAN, Infinite M200) using about […] as the test wavelength and about […] as the reference wavelength. Cell viability (%) was calculated in two ways: % Viability=[(T−B)/(C−B)]×100% % Viability=[(T−C0)/(C−C0)]×100%
(§4) T: Mean Absorbance of Treatment at various hours;
(§5) C: Mean Absorbance of negative Control at various hours;
(§6) B: Mean Absorbance of blank well (only culture medium) at various hours;
(§7) C0: Mean Absorbance of negative Control at 0 h.
(§8) The results are expressed as mean±SD. The IC50 was calculated by XLfit software. The test for each compound was independently repeated once.

[2] = system: human bladder cancer cell line 5637; experiment: as above; assay type: cell-based; conditions: for IC25 / IC75: 5637; for Average Fa: 96 hours
Protocol: as §1, §2, §3, §4, §5, §6, §7, §8

MBT-2-Luc bladder cancer [3] = experiment: Oral NIT with intravesical MMC in orthotopic mouse MBT-2-Luc bladder cancer model; conditions: NIT 15 mg/kg Bid oral, MMC 1 mg/ml Q7d intravesical, single drug or actual observed value of combination; for Survival Proportion: end of the experiment (45 days)
Protocol: The tumor volume was analyzed by the Xenogen IVIS200 system following the indicated treatment. […] The tumor volume of each mouse was determined by region-of-interest analysis of total photons per second. Six mice were analyzed in each group.
To establish the orthotopic bladder cancer tumors, the mice were anesthetized by the intraperitoneal (i.p.) administration of ketamine/xylazine solution at a dose of 0.1 ml/10 g body weight (K113; Sigma-Aldrich Japan G.K., Tokyo, Japan). A 24-gauge Teflon intravenous catheter was subsequently inserted through the urethra into the bladder or prostate using an inert lubricant. In order to prepare the bladder for tumor implantation, a brief acid exposure, followed by alkaline neutralization, promoted a chemical lesion on the bladder wall, performed by the intravesical instillation of 8 μl 1 MOI silver nitrate. This led to the formation of an adequate and controlled diffuse bladder wall lesion. After 15 sec, the content was washed out by transurethral infusion of PBS. The first catheter was removed and a new 24-gauge catheter was inserted in the urethra for intravesical instillation of MBT-2-Luc cells (5×10^4 cells mixed with 0.1 ml PBS) and retained for 1.5 h by stitches. Every 10 days, tumor imaging was performed following i.p. administration of luciferin using bioluminescence technology (Xenogen IVIS200 system; Xenogen Corporation, Hopkinton, Mass., USA).
For the NIT and MMC combination, the mice carrying orthotopic bladder cancer tumors were randomly divided into four groups: control (PBS), NIT, MMC, and the combination of NIT and MMC.
(§9) The mice received i.p. injections of luciferin, and the luciferase expression in the tumors was measured by the Xenogen IVIS200 System.
Additivity was determined using the fractional product concept or Bliss Independence model: Exy=Ex+Ey−(ExEy), where EXY is the additive effect of the 2 compounds x and y as calculated by the product of the individual effect of the 2 compounds, Ex and Ey. Synergy was established when the actual observed tumor inhibition value was greater than the expected tumor inhibition value determined by the Bliss Independence model (20).

RM-9-Luc prostate cancer = experiment: Oral NIT with intraperitoneal anti-PD-1 antibody in orthotopic mouse RM-9-Luc prostate cancer model; assay type: in vivo
Protocol: Eight mice were analyzed for each group.
A low abdominal transverse incision was made, and the bilateral dorsal lobes of prostate were exposed. Following the trypsinization of RM-9-Luc cells, 5.0×10^3 cells in 10 μl of Hanks' balanced salt solution were injected using a new 24-gauge catheter directly into the right dorsal lobe of the prostate. A clearly recognizable bleb within the injected prostatic lobe was considered as a sign of a technically satisfactory injection. The abdominal wound was closed with stainless steel clips (Autoclip; Becton Dickinson Co., Sparks, Md.).

MBT-2-Luc bladder cancer [4] = experiment: Oral NIT with intraperitoneal anti-PD-1 antibody in orthotopic mouse MBT-2-Luc bladder cancer model
Protocol: The tumor volume of each mouse was determined by region-of-interest analysis of total photons per second. Five mice were analyzed in each group.
To establish the orthotopic bladder cancer tumors, the mice were anesthetized by the intraperitoneal (i.p.) administration of ketamine/xylazine solution at a dose of 0.1 ml/10 g body weight (K113; Sigma-Aldrich Japan G.K., Tokyo, Japan). A 24-gauge Teflon intravenous catheter was subsequently inserted through the urethra into the bladder or prostate using an inert lubricant. In order to prepare the bladder for tumor implantation, a brief acid exposure, followed by alkaline neutralization, promoted a chemical lesion on the bladder wall, performed by the intravesical instillation of 8 μl 1 MOI silver nitrate. This led to the formation of an adequate and controlled diffuse bladder wall lesion. After 15 sec, the content was washed out by transurethral infusion of PBS. […]
as §9
Additivity was determined using the fractional product concept or Bliss Independence model: Exy=Ex+Ey−(ExEy), where EXY is the additive effect of the 2 compounds x and y as calculated by the product of the individual effect of the 2 compounds, Ex and Ey.

MBT-2-Luc bladder cancer [5] = system: MBT-2-Luc bladder cancer; set-up: concentration or dose not given beside the values; conditions: mouse, in vivo
[6] = Homo sapiens, inhibition of cell growth, 5637 (Table 9), read-out: IC50
[7] = Homo sapiens, cell line 5637, read-out: IC50 for inhibition of cell growth

With `N.N.O=C([O-])C1(C(=O)[O-])CCC1.[Pt+2]` [Carboplatin, carboplatin] the “Inhibition Rates” value ([1]; Carbo 4 μg/ml, 120 hours) was 38.9%, the “Inhibition Rates” value ([1]; Carbo 8 μg/ml, 120 hours) was 70.7% and the “Inhibition Rates” value ([1]; Carbo 16 μg/ml, 120 hours) was 85.2%. For the same molecule, the “Inhibition Rates” value ([1]; Carbo 32 μg/ml, 120 hours) was 89.1%, the “Inhibition Rates” value ([1]; Carbo 64 μg/ml, 120 hours) was 93.0% and the “Inhibition Rates” value ([1]; Carbo 128 μg/ml, 120 hours) was 93.9%. The “IC50 for inhibition of cell growth” value ([1]; cell line HepG2) was 3.687 µg/mL, the “Inhibition Rates” value ([2]; Carbo 0.5 μg/ml, 120 hours) was 31.5% and the “Inhibition Rates” value ([2]; Carbo 1 μg/ml, 120 hours) was 53.7%. For the same molecule, the “Inhibition Rates” value ([2]; Carbo 2 μg/ml, 120 hours) was 69.9%, the “Inhibition Rates” value ([2]; Carbo 4 μg/ml, 120 hours) was 88.1% and the “Inhibition Rates” value ([2]; Carbo 8 μg/ml, 120 hours) was 91.5%. The “IC50 for inhibition of cell growth” value ([2]; cell line 5637) was 0.917 µg/mL.
In the case of `COc1cccc2c1C(=O)c1c(O)c3c(c(O)c1C2=O)C[C@@](O)(C(=O)CO)C[C@@H]3O[C@H]1C[C@H](N)[C@@H](O)[C@H](C)O1` [Epirubicin, epirubicin], the IC50 [2, 6] was 0.0452 µg/mL, the IC25 ([2]; inhibition of cell growth) was 0.03497 µg/mL and the IC75 ([2]; inhibition of cell growth) was 0.06393 µg/mL.
With `CO[C@@]12[C@H](COC(N)=O)C3=C(C(=O)C(C)=C(N)C3=O)N1C[C@@H]1N[C@@H]12` [Mitomycin C, mitomycin C] the “Tumor Growth Inhibition” value (MBT-2-Luc bladder cancer [3]) was 0.56, the “Survival Proportion” value (MBT-2-Luc bladder cancer [3]) was 0.57 and the “Average Fa” value ([2]; NIT 0, Mitomycin C 3.13 (units not given)) was 1.6%. For the same molecule, the “Average Fa” value ([2]; NIT 0, Mitomycin C 12.5 (units not given)) was 27.7%, the “Average Fa” value ([2]; NIT 0, Mitomycin C 50 (units not given)) was 77.9% and the “Average Fa” value ([2]; NIT 0, Mitomycin C 200 (units not given)) was 79.4%. For the same molecule, the IC25 ([2]; inhibition of cell growth) was 0.04836 µg/mL, the IC75 ([2]; inhibition of cell growth) was 0.53662 µg/mL and the IC50 ([2]; inhibition of cell growth, 5637 (Table 9)) was 0.15253 µg/mL.
For `O=[N+]([O-])c1ccc(O)c2ncccc12` [NIT, Nitroxoline], the “Tumor Weight Proportion” value (RM-9-Luc prostate cancer; NIT 15 mg/kg bid p.o., anti-PD-1 10 mg/kg q4d intraperitoneal, single drug or actual observed value of combination) was 0.37, the “tumor growth inhibition rate” value (RM-9-Luc prostate cancer; tumor volume, FIG. 12B, NIT 15 mg/kg oral, anti-PD-1 10 mg/kg intraperitoneal) was 52% and the “Tumor Growth Inhibition” value (RM-9-Luc prostate cancer; tumor volume, NIT 15 mg/kg bid p.o., anti-PD-1 10 mg/kg q4d intraperitoneal, single drug or actual observed value of combination) was 0.52. For the same molecule, the “tumor inhibition by tumor weight” value (RM-9-Luc prostate cancer; tumor weight, FIG. 12D, NIT 15 mg/kg oral, anti-PD-1 10 mg/kg intraperitoneal) was 37%, the “Tumor Growth Inhibition” value (MBT-2-Luc bladder cancer [4]; NIT 15 mg/kg bid p.o., anti-PD-1 10 mg/kg q5d intraperitoneal, single drug or actual observed value of combination) was 0.31 and the tumor inhibition rate (MBT-2-Luc bladder cancer [4]; NIT 15 mg/kg oral, anti-PD-1 10 mg/kg intraperitoneal, FIG. 11B) was 31%. For the same molecule, the “Tumor Growth Inhibition” value (MBT-2-Luc bladder cancer [3]) was 0.33, the “Survival Proportion” value (MBT-2-Luc bladder cancer [3]) was 0.33 and the “Survival Proportion” value (MBT-2-Luc bladder cancer [5]) was 0.4. The “Tumor Growth Inhibition” value (MBT-2-Luc bladder cancer [5]) was 0.52 and 0.35, the inhibition at 0.5 µg/mL ([1]; Homo sapiens, HepG2, NIT 0.5 μg/ml, 120 hours, read-out: Inhibition Rates) was 3.2% and the inhibition at 1 µg/mL ([1]; Homo sapiens, HepG2, NIT 1 μg/ml, 120 hours, read-out: Inhibition Rates) was 21.7%. For the same molecule, the inhibition at 2 µg/mL ([1]; Homo sapiens, HepG2, NIT 2 μg/ml, 120 hours, read-out: Inhibition Rates) was 80.3%, the inhibition at 4 µg/mL ([1]; Homo sapiens, HepG2, NIT 4 μg/ml, 120 hours, read-out: Inhibition Rates) was 90.5% and the inhibition at 8 µg/mL ([1]; Homo sapiens, HepG2, NIT 8 μg/ml, 120 hours, read-out: Inhibition Rates) was 93.5%. It also gave an inhibition at 16 µg/mL ([1]; Homo sapiens, HepG2, NIT 16 μg/ml, 120 hours, read-out: Inhibition Rates) of 95.3%, an IC50 ([1]; Homo sapiens, cell line HepG2) of 1.86 µg/mL and an inhibition at 0.25 µg/mL ([2]; Homo sapiens, NIT 0.25 μg/ml, 120 hours, read-out: Inhibition Rates) of 18%. For the same molecule, the inhibition at 0.5 µg/mL ([2]; Homo sapiens, NIT 0.5 μg/ml, 120 hours, read-out: Inhibition Rates) was 52%, the inhibition at 1 µg/mL ([2]; Homo sapiens, NIT 1 μg/ml, 120 hours, read-out: Inhibition Rates) was 79.9% and the inhibition at 2 µg/mL ([2]; Homo sapiens, NIT 2 μg/ml, 120 hours, read-out: Inhibition Rates) was 92.3%. For the same molecule, the inhibition at 4 µg/mL ([2]; Homo sapiens, NIT 4 μg/ml, 120 hours, read-out: Inhibition Rates) was 95.5%, the IC50 [2, 7] was 0.517 µg/mL and the “Average Fa” value ([2]; NIT 625, Mitomycin C 0 (units not given)) was −7.2%. The “Average Fa” value ([2]; NIT 1250, Mitomycin C 0 (units not given)) was −3.8%, the “Average Fa” value ([2]; NIT 2500, Mitomycin C 0 (units not given)) was 23.3% and the “Average Fa” value ([2]; NIT 5000, Mitomycin C 0 (units not given)) was 74.3%. The “Average Fa” value ([2]; NIT 10000, Mitomycin C 0 (units not given)) was 94.0%.
For `CC(=O)O[C@H]1C(=O)[C@@]2(C)[C@H]([C@H](OC(=O)c3ccccc3)[C@]3(O)C[C@H](OC(=O)[C@H](O)[C@@H](NC(=O)c4ccccc4)c4ccccc4)C(C)=C1C3(C)C)[C@]1(OC(C)=O)CO[C@@H]1C[C@@H]2O` [Paclitaxel, paclitaxel], the IC50 ([1]; Homo sapiens, cell line HepG2) was 0.0025 µg/mL, the “Inhibition Rates” value ([1]; Taxol 0.5 ng/ml, 112 hours) was 5.8% and the “Inhibition Rates” value ([1]; Taxol 1 ng/ml, 112 hours) was 14.0%. For the same molecule, the “Inhibition Rates” value ([1]; Taxol 2 ng/ml, 112 hours) was 47.5%, the “Inhibition Rates” value ([1]; Taxol 4 ng/ml, 112 hours) was 75.8% and the “Inhibition Rates” value ([1]; Taxol 8 ng/ml, 112 hours) was 90.4%. The “Inhibition Rates” value ([1]; Taxol 16 ng/ml, 112 hours) was 92.7%, the IC50 [2, 7] was 0.000289 µg/mL and the “Inhibition Rates” value ([2]; Taxol 0.125 ng/ml, 112 hours) was 11.9%. The “Inhibition Rates” value ([2]; Taxol 0.25 ng/ml, 112 hours) was 47.6%, the “Inhibition Rates” value ([2]; Taxol 0.5 ng/ml, 112 hours) was 84.3% and the “Inhibition Rates” value ([2]; Taxol 1 ng/ml, 112 hours) was 90.3%. The “Inhibition Rates” value ([2]; Taxol 2 ng/ml, 112 hours) was 96.8%.
In the case of `COc1cccc2c1C(=O)c1c(O)c3c(c(O)c1C2=O)C[C@@](O)(C(=O)CO)C[C@@H]3O[C@H]1C[C@H](N)[C@H](O[C@@H]2CCCCO2)[C@H](C)O1` [Pirarubicin, pirarubicin], the IC50 [2, 6] was 0.143 µg/mL, the IC25 ([2]; inhibition of cell growth) was 0.09658 µg/mL and the IC75 ([2]; inhibition of cell growth) was 0.21958 µg/mL.
